# Assay results taken from article PMC7316490, “Dihydrofolate Reductase Is a Valid Target for Antifungal Development in the Human Pathogen Candida albicans” (mSphere, 2020).
# Where two headings read alike, the source gives them in different places.
# Tests used:
# [1] = tested on: wild-type C. albicans strain (SC5314); experiment: Antifungal susceptibility testing (dose-response growth, OD600); assay type: cell-based, Candida albicans; settings: for C. albicans growth inhibition (in words): YNB medium, pH 5 and pH 7; for MIC: Candida albicans, SC5314, YNB medium buffered to either pH 5 or 7
# Protocol: A wild-type C. albicans strain (SC5314) was seeded at 1 × 10^4 cells/ml into YNB medium without folate or PABA with the indicated supplements and increasing concentrations of MTX. After 48 h of incubation at 30°C, growth was quantified as the OD600 value and expressed as a percentage of the value for the DMSO-treated control. The values presented here are the average of two replicates and are representative of two independent experiments.
# Approximately 1 × 10^4 cells/ml of a wild-type C. albicans strain was seeded into a 96-well plate with increasing concentrations of MTX in YNB pH 5, YNB pH 7, and RPMI pH 7 media. After 48 h, the OD600 was measured and expressed as a percentage of the value for the DMSO-treated control. The results presented here are the averages of two replicates and are representative of two independent experiments.
# Stock solutions of MTX were prepared at 10 mM in dimethyl sulfoxide (DMSO) and diluted as needed in the same solvent. […] The final concentration of DMSO was 0.5% for all treatments. Plates were then incubated at 30°C before growth was quantified after 24 and 48 h by measuring the OD600 using a Cytation 5 plate reader (Bio-Tek Instruments, Inc.). MIC50 values were identified visually using the CLSI antifungal susceptibility assay and then confirmed by quantifying growth by the OD600 value. The growth of each strain at each drug concentration was then expressed relative to that of the DMSO-alone control. The susceptibility to MTX at the highest concentration at each pH was compared to that of the other pH values using a two-tailed Student's t test.
# [2] = biological target: T1, Candida albicans dihydrofolate reductase (Candida albicans, UniProt P22906); experiment: biochemical; assay type: biochemical; settings: for inhibition of C. albicans DHFR (in words): dose-response experiments, purified enzyme
# T1 construct: The optimized DFR1 ORF was then cloned into pET15b; 6xHis; host or cells: Escherichia coli
# T1 sequence (P22906 1-192): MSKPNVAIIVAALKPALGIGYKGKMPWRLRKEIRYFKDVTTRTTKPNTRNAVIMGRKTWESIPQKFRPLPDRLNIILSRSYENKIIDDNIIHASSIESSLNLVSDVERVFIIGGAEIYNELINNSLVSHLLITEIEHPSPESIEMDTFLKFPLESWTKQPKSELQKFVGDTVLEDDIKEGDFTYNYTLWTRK
# Description: Finally, we tested a panel of additional antifolates to examine the relationship between their antifungal potencies and capacities to inhibit C. albicans DHFR. The enzyme was purified using a 6×His tag ([45], [46]), and activity was detected by measuring the conversion of NADPH to NADP^+ at an optical density at 340 nm (OD340) ([34]).
# The C. albicans DFR1 open reading frame (ORF) sequence was retrieved from the Candida Genome Database ([68]) and was codon optimized for expression in Escherichia coli. The optimized DFR1 ORF was then cloned into pET15b ([69]) to allow propagation and expression of C. albicans Dfr1p in E. coli. Cultures of E. coli transformed with pET15b-CaDfr1p (Biomatik) were grown overnight in LB plus ampicillin. The culture was diluted 1:100 into fresh medium and incubated at 35°C for 6 h; then Dfr1p expression was induced with isopropyl-β-D-thiogalactopyranoside (IPTG) at a final concentration of 0.5 mM for 16 h. Cells were collected by centrifugation and resuspended in binding buffer (6 g/liter Tris base, pH 7.5, 8.8 g/liter NaCl, 1 mM dithiothreitol [DTT], 0.68 g/liter imidazole, 5% glycerol, 1× protease inhibitor). Resuspended cells were lysed with 1 mg/ml chicken white lysozyme (Sigma) for 60 min at 4°C. Then, Triton X-100 and NaCl were added to 0.1% and 0.5 M, respectively. The lysate was then centrifuged, and the supernatant was collected. The supernatant was added to nickel resin beads (Sigma) and incubated at 4°C for 30 min with rotation. The buffer was removed, and the beads were washed twice with binding buffer. Then the beads were suspended in elution buffer (6 g/liter Tris base, pH 7.5, 8.8 g/liter NaCl, 1 mM DTT, 34 g/liter imidazole, 5% glycerol) and incubated at 4°C for 30 min. The elution was removed and then run on SDS-PAGE gels (Sigma) to confirm the presence of CaDfr1p. SDS-PAGE gels were run according to the manufacturer’s protocol.
# The enzymatic activity of C. albicans Dfr1p was determined using a dihydrofolate reductase assay (Sigma). The manufacturer’s protocol was adapted to the fungal enzyme by scaling down the volume to 100-μl reaction mixtures with 88 μl of buffer, 6 μl of a 1 mM NADPH stock, 5 μl of a 1 mM DHF stock, and 1 μl of 3-mg/ml purified enzyme. The loss of NADPH was quantified as the decrease in absorption at the OD340 over a 30-min time frame. The IC50 was calculated by converting the change in the OD340 value per minute into the amount of THF produced per minute and then compared to the level in an untreated control.
# [3] = tested on: disseminated Candida infections; settings: cited from earlier work; for fraction of patients nonresponsive to treatment: patients with disseminated Candida infections
# [4] = tested on: PTET98-DFR1 strain; experiment: Mouse model of disseminated candidiasis; assay type: in vivo, BALB/c mice
# Protocol: Next, we determined if DFR1 expression is essential for C. albicans virulence in a mammalian host using a mouse model of disseminated candidiasis. Female BALB/c mice were split into two treatment groups: group 1 was treated with doxycycline in a gel food formulation from 72 h before infection and for the duration of the experiment; group 2 was mock treated using unsupplemented gel food. The mice were then infected with ∼5 × 10^5 yeast cells of the PTET98-DFR1 strain via the lateral tail vein, and their health was monitored for 12 days. […] All mice in the mock-treated group succumbed to the infection by day 7 (Fig. 5A), confirming the virulence of the PTET98-DFR1 strain under nonrepressing conditions. […] On day 12, surviving animals were euthanized, kidneys were extracted and homogenized, and levels of fungal colonization were determined as CFU counts. […] To determine if suppression of Dfr1p activity is sufficient to resolve an established infection, a second experiment was performed in which mice were infected with the PTET98-DFR1 strain, and doxycycline treatment was initiated 24-h postinfection. […] Furthermore, C. albicans is unable to scavenge sufficient sources of folate to survive within mammalian tissue, and de novo biosynthesis is required. Indeed, the antifungal efficacy achieved upon repressing Dfr1p expression appears to be similar to that attained upon suppression of Erg11p expression. Accordingly, DHFR and likely other FOL pathway enzymes can provide potentially efficacious targets for antifungal development.
# FIG 5 Dfr1p is essential for Candida albicans virulence in a mouse model of disseminated candidiasis. Groups of BALB/c mice (n = 6) were inoculated with ∼5 × 10^5 CFU of either the dfr1Δ/PTET98-DFR1 strain or the erg11Δ/PTETO-ERG11 strain via the lateral tail vein injections. The Erg11p strain was included to compare the antifungal efficacy of targeting Dfr1p with a previously validated target. The mice were monitored three times daily for 12 days, and those showing signs of distress were humanely euthanized. Mice were treated with 2 mg/g doxycycline (DOX) or mock treated with vehicle alone provided in a gel food formulation from 72 h prior to infection and throughout the duration of the experiment. […].
# All animal experiments were done according to protocols approved by the University of Tennessee Institutional Animal Care and Use Committee. Groups of 6- to 8-week-old female BALB/c mice (Charles River Laboratories) were randomly assigned to one of three treatment groups 3 days before infection. Group 1 (minus doxycycline) was provided 20 g of DietGel (clear H2O) per day, per cage of 4 mice, while group 2 (plus doxycycline) was provided the same diet supplemented with 2 mg/ml of doxycycline hyclate. Group 3 (posttreatment) mice were given the DietGel without doxycycline until 24 h after infection and were administered 10 mg/kg of doxycycline through oral gavage at […], 24, and 36 h postinfection. Treatment was maintained daily for the duration of the experiment (up to 12 days postinfection). Each C. albicans strain was grown overnight in YPD cultures at 30°C (200 rpm). Cells were washed twice in sterile endotoxin-free phosphate-buffered saline (PBS), and cell density was determined using a hemocytometer. […] Mice were monitored for 12 days, and those showing distress were euthanized. Survival data were plotted on a Kaplan-Meier curve and analyzed by a log rank (Mantel-Cox) test using GraphPad Prism, version 8.00. […]
# [5] = tested on: PTET98-DFR1 strain; experiment: Passaging of doxycycline-repressible strain in fetal bovine serum; assay type: cell-based; settings: Candida albicans, read-out: growth inhibition
# Protocol: FIG 2 Dfr1p is essential for Candida albicans growth in vitro. A dfr1Δ/PTETO98-DFR1 strain was sequentially passaged in YPD broth (A), YNB broth (B), or fetal bovine serum (C), each supplemented with 5 μg/ml doxycycline (DOX). Following inoculation at approximately 5 × 10^5 cells/ml, each culture was incubated at 30°C for 24 h, and growth was measured after 24 h as the OD600 value. Relative growth was then expressed as a percentage of the untreated control, i.e., without doxycycline. The values presented here are representative of two independent experiments.
# A combination of dTMP, adenine, histidine, and methionine, each of which requires folate for its biosynthesis, is sufficient to partially restore S. cerevisiae growth following treatment with antifolates ([36]). However, these supplements were not sufficient to restore C. albicans growth in the presence of MTX (Fig. 3). […] Finally, we examined if C. albicans was able to scavenge sufficient folates or folate-dependent metabolites from blood serum to negate the need for de novo biosynthesis. The PTET98-DFR1 strain was passaged for 3 days in 100% fetal bovine serum (FBS) with or without doxycycline. In the first passage, doxycycline inhibited growth by ∼60%, with increasing growth inhibition seen in subsequent subcultures (Fig. 2C). […]
# [6] = doxycycline treatment initiated 24-h postinfection
compound,measurement,setting,value
"Nc1nc2[nH]cc(CCc3ccc(C(=O)N[C@@H](CCC(=O)O)C(=O)O)cc3)c2c(=O)[nH]1 [Pemetrexed, pemetrexed]",C. albicans growth inhibition (in words),[1],antifungal activity at pH 5 but not at pH 7
same,IC50,[2],1000 nM
same,inhibition of C. albicans DHFR (in words),[2],inhibited C. albicans DHFR activity
"[H]/N=C(\N/C(=N/[H])Nc1ccc(Cl)cc1)NC(C)C [Proguanil, proguanil]",MIC,[1],> 25 µM
same,inhibition of C. albicans DHFR (in words),[2],lacked activity
same,IC50,"[2]; purified C. albicans DHFR (6×His tag), read-out: IC50",> 10000 nM
"CCc1nc(N)nc(N)c1-c1ccc(Cl)cc1 [Pyrimethamine, pyrimethamine]",C. albicans growth inhibition (in words),[1],failed to inhibit C. albicans growth at either pH
same,IC50,[2],100 nM
same,inhibition of C. albicans DHFR (in words),[2],inhibited C. albicans DHFR activity
"COc1cc(Cc2cnc(N)nc2N)cc(OC)c1OC [Trimethoprim, trimethoprim]",MIC,[1],> 25 µM
C[C@@H]1[C@H](O)[C@@H](C)/C=C/C=C/C=C/C=C/C=C/C=C/C=C/[C@H](O[C@@H]2O[C@H](C)[C@@H](O)[C@H](N)[C@@H]2O)C[C@@H]2O[C@](O)(C[C@@H](O)C[C@@H](O)[C@H](O)CC[C@@H](O)C[C@@H](O)CC(=O)O[C@H]1C)C[C@H](O)[C@H]2C(=O)O [amphotericin B],favorable response rate,[3]; patients with disseminated candidiasis,62%
C[C@H]1c2cccc(O)c2C(=O)C2=C(O)[C@]3(O)C(=O)C(C(N)=O)=C(O)[C@@H](N(C)C)[C@@H]3[C@@H](O)[C@@H]21 [doxycycline],kidney fungal colonization (CFU) on day 12,[4]; doxycycline from 72 h before infection,5 of the 8 surviving mice had undetectable levels of fungal colonization
same,survival,"[4]; doxycycline in gel food from 72 h before infection, monitored 12 days",all doxycycline-treated mice survived for the duration of the experiment
same,kidney fungal colonization at end of experiment,[4]; [6],Half of these mice had undetectable levels of fungal colonization
same,time to resolution of initial symptoms,[4]; [6],≤ 6 days
same,survival,"[4]; doxycycline treatment initiated 24-h postinfection, to day 12 postinfection",all mice survived the duration of the experiment
same,inhibition at 5 µg/mL,[5],~60%
OC(Cn1cncn1)(Cn1cncn1)c1ccc(F)cc1F [fluconazole],fraction of patients nonresponsive to treatment,[3],approximately one-third
C[C@@H](c1nc(-c2ccc(C#N)cc2)cs1)[C@](O)(Cn1cncn1)c1cc(F)ccc1F [isavuconazole],fraction of patients nonresponsive to treatment,[3],approximately one-third
C[C@@H](c1ncncc1F)[C@](O)(Cn1cncn1)c1ccc(F)cc1F [voriconazole],fraction of patients nonresponsive to treatment,[3],approximately one-third
